# From US7601746B2 (Shionogi & Co., Ltd., priority 2003, dated 2009)
# Molecular target: T1, human TPO receptor (hTPOR) (Homo sapiens, UniProt P40238)
# T1 construct: expressed in transfected cells; host or cells: BaF-B03 (murine IL-3 dependent cell line)
# T1 sequence (P40238 26-635): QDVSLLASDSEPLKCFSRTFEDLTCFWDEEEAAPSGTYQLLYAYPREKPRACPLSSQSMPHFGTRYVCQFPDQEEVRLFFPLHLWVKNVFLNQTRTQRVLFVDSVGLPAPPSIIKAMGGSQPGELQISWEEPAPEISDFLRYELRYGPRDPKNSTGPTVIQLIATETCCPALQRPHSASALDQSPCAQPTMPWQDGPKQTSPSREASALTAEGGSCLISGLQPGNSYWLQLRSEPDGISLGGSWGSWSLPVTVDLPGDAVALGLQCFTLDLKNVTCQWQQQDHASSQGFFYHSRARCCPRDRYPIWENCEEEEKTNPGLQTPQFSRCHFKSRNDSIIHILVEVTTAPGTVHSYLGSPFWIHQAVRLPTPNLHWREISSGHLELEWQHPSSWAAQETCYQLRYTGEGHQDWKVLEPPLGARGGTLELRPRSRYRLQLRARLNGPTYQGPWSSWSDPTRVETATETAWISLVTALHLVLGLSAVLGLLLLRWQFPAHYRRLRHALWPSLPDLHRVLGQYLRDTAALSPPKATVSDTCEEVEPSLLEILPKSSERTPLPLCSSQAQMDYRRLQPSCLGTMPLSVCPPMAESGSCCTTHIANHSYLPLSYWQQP
# Assay: Thrombopoietic activity: proliferation of TPO dependent BaF/hTPOR cells (WST-1, absorbance at 450 nm)
# Format: cell-based
# Conditions: 20 h + 4 h WST-1, ED50 = half concentration of the concentration showing the maximum thrombopoietic activity, Table 1
# Source text: The TPO dependent BaF/hTPOR cell line which was established by introducing human TPO receptor (hTPOR) into BaF-B03 cells according to Collins et al (J. Cell. Physiol., 137:293-298 (1988)) was used to test the thrombopoietic activity of the present compound. The DNA sequences and encoded peptide sequences for human hTPOR have been described by Vigon et al (Proc. Natl. Acad. Sci. USA, 89:5640-5644 (1992)). TPO dose not have any ability to support proliferation of interlukin-3 dependent parental cell line BaF-B03. BAF/hTPOR cells were maintained in RPMI medium and WEHI-3B conditioned medium as a source of murine interleukin-3 (IL-3). These cells were washed and resuspended in RPMI medium without a source of murine IL-3 and seeded into each well of 96-well microtiter plates at a density of 5×10^4 cells per well in the absence or presence of various concentration of hTPO or the present compound. After incubation at 37° C. for 20 hours in the 5% CO2 incubator, 10% WST-1 reagent (Takara Biomedicals, Japan) was added to each wells and the cells were further incubated for 4 hours. The absorbance at 450 nm was measured. Tables 1 and 2 exemplify the ED50 for tested compounds of the present invention, wherein the ED50 is the half concentration of the concentration showing the maximum thrombopoietic activity.
row,EC50 [nM],Structure (SMILES)
1,0.67,"CCOCCCCOC(c1cccc(-c2csc(NC(=O)c3cc(F)c(C=C(C)C(=O)O)c(F)c3)n2)c1F)C1CCCCC1 (centres unmarked) [Compound B21, 3-[4-(4-{3-[1-cyclohexyl-1-(4-ethyloxybutyloxy)methyl]-2-fluorophenyl]thiazol-2-ylcarbamoyl}-2,6-difluorophenyl)-2-methylacrylic acid]"
2,1.14,"CCOCCCCOC(CC)c1cccc(-c2csc(NC(=O)c3cc(F)c(C=C(C)C(=O)O)c(F)c3)n2)c1F (centres unmarked) [Compound B22, 3-[2,6-difluoro-4-(4-{3-[1-(4-ethyloxybutyloxy)propyl]-2-fluorophenyl}thiazol-2-ylcarbamoyl)phenyl]-2-methylacrylic acid]"
3,1.23,"CCCCCCC(OC)c1cccc(-c2csc(NC(=O)c3cc(F)c(C=C(C)C(=O)O)c(F)c3)n2)c1F (centres unmarked) [Compound B23, 3-(2,6-difluoro-4-{4-[2-fluoro-3-(1-methyloxyheptyl)phenyl]thiazol-2-ylcarbamoyl}phenyl)-2-methylacrylic acid]"
4,1.97,"CCCC(OCC)c1cccc(-c2csc(NC(=O)c3cc(F)c(C=C(C)C(=O)O)c(F)c3)n2)c1F (centres unmarked) [Compound B24, 3-(2,6-difluoro-4-{4-[3-(1-ethyloxybutyl)-2-fluorophenyl]thiazol-2-ylcarbamoyl}phenyl)-2-methylacrylic acid]"
5,0.93,"CCCCCCCC(OC)c1cccc(-c2csc(NC(=O)c3cc(F)c(C=C(C)C(=O)O)c(F)c3)n2)c1F (centres unmarked) [Compound B25, 3-(2,6-difluoro-4-{4-[2-fluoro-3-(1-methyloxyoctyl)phenyl]thiazol-2-ylcarbamoyl}phenyl)-2-methylacrylic acid]"
6,0.39,"CCCCCOC(CCCC)c1cccc(-c2csc(NC(=O)c3cc(F)c(C=C(C)C(=O)O)c(F)c3)n2)c1F (centres unmarked) [Compound B26, 3-(2,6-difluoro-4-{4-[2-fluoro-3-(1-n-pentyloxypentyl)phenyl]thiazol-2-ylcarbamoyl}phenyl)-2-methylacrylic acid]"
7,0.75,"CCCCC(OCC)c1cccc(-c2csc(NC(=O)c3cc(F)c(C=C(C)C(=O)O)c(F)c3)n2)c1F (centres unmarked) [Compound B27, 3-(2,6-difluoro-4-{4-[3-(1-ethyloxypentyl)-2-fluorophenyl]thiazol-2-ylcarbamoyl}phenyl)-2-methylacrylic acid]"
8,0.79,"CCCCCCCCC(OC)c1cccc(-c2csc(NC(=O)c3cc(F)c(C=C(C)C(=O)O)c(F)c3)n2)c1F (centres unmarked) [Compound B28, 3-(2,6-difluoro-4-{4-[2-fluoro-3-(1-methyloxynonyl)phenyl]thiazol-2-ylcarbamoyl}phenyl)-2-methylacrylic acid]"
9,0.78,"CCCCCCCCOC(C)c1cccc(-c2csc(NC(=O)c3cc(F)c(C=C(C)C(=O)O)c(F)c3)n2)c1F (centres unmarked) [Compound B30, 3-(2,6-difluoro-4-{4-[2-fluoro-3-(1-n-octyloxyethyl)phenyl]thiazol-2-ylcarbamoyl}phenyl)-2-methylacrylic acid]"
10,0.85,"CCCCCOC(C)c1cccc(-c2csc(NC(=O)c3cc(F)c(C=C(C)C(=O)O)c(F)c3)n2)c1F (centres unmarked) [Compound B31, 3-(2,6-difluoro-4-{4-[2-fluoro-3-(1-n-pentyloxyethyl)phenyl]thiazol-2-ylcarbamoyl}phenyl)-2-methylacrylic acid]"
11,3.03,"CCCCCCCCCCOCc1cccc(-c2csc(NC(=O)c3cc(F)c(C=C(C)C(=O)O)c(F)c3)n2)c1F [Compound B32, 3-(2,6-difluoro-4-{4-[2-fluoro-3-(n-decyloxymethyl)phenyl]thiazol-2-ylcarbamoyl}phenyl)-2-methylacrylic acid]"
12,3.33,"CCCCCOCc1cccc(-c2csc(NC(=O)c3cc(F)c(C=C(C)C(=O)O)c(F)c3)n2)c1F [Compound B33, 3-(2,6-difluoro-4-{4-[2-fluoro-3-(n-pentyloxymethyl)phenyl]thiazol-2-ylcarbamoyl}phenyl)-2-methylacrylic acid]"
13,0.99,"CCCOC(CCC)c1cccc(-c2csc(NC(=O)c3cc(F)c(C=C(C)C(=O)O)c(F)c3)n2)c1F (centres unmarked) [Compound B34, 3-(2,6-difluoro-4-{4-[2-fluoro-3-(1-n-propyloxybutyl)phenyl]thiazol-2-ylcarbamoyl}phenyl)-2-methylacrylic acid]"
14,0.77,"CCCCOC(CCC)c1cccc(-c2csc(NC(=O)c3cc(F)c(C=C(C)C(=O)O)c(F)c3)n2)c1F (centres unmarked) [Compound B35, 3-(4-{4-[3-(1-n-butyloxybutyl)-2-fluorophenyl]thiazol-2-ylcarbamoyl}-2,6-difluorophenyl)-2-methylacrylic acid]"
15,0.63,"CCCCCOC(CCC)c1cccc(-c2csc(NC(=O)c3cc(F)c(C=C(C)C(=O)O)c(F)c3)n2)c1F (centres unmarked) [Compound B36, 3-(2,6-difluoro-4-{4-[2-fluoro-3-(1-n-pentyloxybutyl)phenyl]thiazol-2-ylcarbamoyl}phenyl)-2-methylacrylic acid]"
16,0.88,"CCCCOC(CC)c1cccc(-c2csc(NC(=O)c3cc(F)c(C=C(C)C(=O)O)c(F)c3)n2)c1F (centres unmarked) [Compound B37, 3-(4-{4-[3-(1-n-butyloxypropyl)-2-fluorophenyl]thiazol-2-ylcarbamoyl}-2,6-difluorophenyl)-2-methylacrylic acid]"
17,0.62,"CCCCCCOC(CC)c1cccc(-c2csc(NC(=O)c3cc(F)c(C=C(C)C(=O)O)c(F)c3)n2)c1F (centres unmarked) [Compound B38, 3-(2,6-difluoro-4-{4-[2-fluoro-3-(1-n-hexyloxypropyl)phenyl]thiazol-2-ylcarbamoyl}phenyl)-2-methylacrylic acid]"
18,1.01,"CC(=Cc1c(F)cc(C(=O)Nc2nc(-c3cccc(CCCOCCCC(C)C)c3F)cs2)cc1F)C(=O)O [Compound B39, 3-[2,6-difluoro-4-(4-(2-fluoro-3-[3-(4-methylpentyloxy)propyl]phenyl}thiazol-2-ylcarbamoyl)phenyl]-2-methylacrylic acid]"
19,0.88,"CC(=Cc1c(F)cc(C(=O)Nc2nc(-c3cccc(CCCOCCC(C)(C)C)c3F)cs2)cc1F)C(=O)O [Compound B40, 3-[2,6-difluoro-4-(4-{3-[3-(3,3-dimethylbutyloxy)propyl]-2-fluorophenyl}thiazol-2-ylcarbamoyl)phenyl]-2-methylacrylic acid]"
20,0.67,"CCCCC(OCCC)c1cccc(-c2csc(NC(=O)c3cc(F)c(C=C(C)C(=O)O)c(F)c3)n2)c1F (centres unmarked) [Compound B41, 3-(2,6-difluoro-4-{4-[2-fluoro-3-(1-n-propyloxypentyl)phenyl]thiazol-2-ylcarbamoyl}phenyl)-2-methylacrylic acid]"
21,0.34,"CCCCOC(CCCC)c1cccc(-c2csc(NC(=O)c3cc(F)c(C=C(C)C(=O)O)c(F)c3)n2)c1F (centres unmarked) [Compound B42, 3-(4-{4-[3-(1-n-butyloxypentyl)-2-fluorophenyl]thiazol-2-ylcarbamoyl}-2,6-difluorophenyl]-2-methylacrylic acid]"
22,1.65,"CCC(CC)COCCCc1cccc(-c2csc(NC(=O)c3cc(F)c(C=C(C)C(=O)O)c(F)c3)n2)c1F [Compound B43, 3-[2,6-difluoro-4-(4-{3-[3-(2-ethylbutyloxy)propyl]-2-fluorophenyl}thiazol-2-ylcarbamoyl}phenyl)-2-methylacrylic acid]"
23,1.27,"CC(=Cc1c(F)cc(C(=O)Nc2nc(-c3cccc(CCCOCCC4CCCC4)c3F)cs2)cc1F)C(=O)O [Compound B44, 3-[4-(4-{3-[3-(2-cyclopentylethyloxy)propyl]-2-fluorophenyl}thiazol-2-ylcarbamoyl}-2,6-difluorophenyl)-2-methylacrylic acid]"
